Where a name gives a salt, the structure may show the parent alone.

One experiment addresses T1, h-5-HT6 receptor (Homo sapiens, UniProt P50406).
T1 construct: expressed in transfected cells; host or cells: HEK293
Briefly: 5-HT6 receptor binding assay, displacement of [3H]-LSD. Conditions: membranes of HEK293 cells expressing h-5-HT6, 1 nM [3H]-LSD. How it is done:
Displacement of Radioligands Binding to the Following Cloned Human Receptors
(§1) 1. Preparation of Membranes by Ultrasonic Treatment and Differential Centrifugation
Cells from stable clonal cell lines expressing the corresponding receptor (5-HT6, 1-adrenergic, dopamine D2 or histamine H1 receptors) were washed with PBS (w/o Ca^++, Mg^++) and harvested in PBS with 0.02% EDTA. The cells were collected by centrifugation at 500 g for 10 min. at 4° C., washed with PBS and centrifuged (500 g, 10 min. 4° C.). The pellets were stored at −80° C. until use. For membrane preparation, the thawed cell pellet was resuspended in ice-cold sucrose buffer (0.25 M sucrose, 10 mM Hepes (pH 7.4), 1 mM Phenylmethylsulfonyl fluoride (PMSF) in DMSO, […] Pepstatin-A, 3 mM EDTA, 0.025% Bacitracin) and homogenized with a Branson Sonifier W-250 (Settings: Timer 4; Output Control 3; Duty Cycle constant; 2 to 3 cycles). Cell disruption was checked with the aid of a microscope. Remaining unbroken cells were pelleted at 1,000 g for 10 min. at 4° C. The sucrose buffer supernatant was then centrifuged at 60,000 g for 1 h at 4° C. (Beckman Ultrazentrifuge XL 80). The pellet was resuspended in 30 ml ice-cold Tris buffer (20 mM TRIS (pH 7.4), […] Pepstatin A, 0.1 mM PMSF, 3 mM EDTA) by pipetting through a 10 ml serological pipet and centrifuged for 1 h at 4° C. at 60,000 g. A final resuspension was performed in a small volume of ice-cold Tris buffer (see above) by pressing through a serological pipet followed by ultrasonic treatment with a Branson Sonifier W-250 (Settings: Timer 1; Output Control 3; Duty Cycle constant; 1 cycle). Protein concentration was determined (BCA-Kit; Pierce) and aliquots stored at −80° C. or in liquid nitrogen for long-term storage.
(§2) 2. Receptor Binding Experiments
All receptor binding experiments were carried out in the corresponding assay buffer in a total volume of 200 μl in the presence of various concentrations of test compound (10^−5 M to 10^−9 M, tenfold serial dilution, duplicate determinations). The assays were terminated by filtration on polyethylenimine (PEI 0.1% or 0.3%) presoaked Packard Unifilter Plates (GF/C or GF/B) with a Tomtec MachIII U 96 well-plate harvester. After the plates had been dried for 2 h at 55° C. in a drying chamber scintillation cocktail (BetaPlate Scint; PerkinElmer) was added. Radioactivity was measured in a Microbeta Trilux two hours after the addition of the scintillation mixture. Data derived from liquid scintillation counting were analysed by iterative non-linear regression analysis with the use of the Statistical Analysis System (SAS): a program similar to “LIGAND” as described by Munson and Rodbard (Analytical Biochemistry 107, 220-239 (1980).
a) 5-HT6 Receptor Binding Assay
HEK293 cells stably expressing the h-5-HT6 receptor (NCBI Reference Sequence XM 001435) were cultured in RPMI1640 medium supplemented with 25 mM HEPES, 10% fetal calf serum and 1-2 mM glutamine. The membrane preparation was performed as described in section 1. […] Non-specific binding was defined with 1 μM methiothepin. The binding reaction was carried out for 3.5 h at room temperature. During the incubation, the plates were shaken on a plate shaker at 100 rpm and terminated by filtration on Packard Unifilter GF/C (0.1% PEI) plates, followed by 2 wash cycles with ice-cold 50 mM Tris-HCl, 5 mM CaCl2.
Data derived from liquid scintillation counting were analyzed by iterative non-linear regression analysis with the use of the Statistical Analysis System (SAS): a program similar to “LIGAND” as described by Munson and Rodbard (Anal. Biochem. 1980, 107, 220-239). Fitting was performed according to formulae described by Feldman (Anal. Biochem. 1972, 48, 317-338). IC50, nH and Ki values were expressed as geometrical mean.
On the technique in general: Loss of bound radioactivity is the signal in a displacement assay; it reports binding, not function.

For a further experiment, the target named is T2, dopamine D2 receptor (Homo sapiens, UniProt P14416).
T2 construct: expressed in transfected cells; host or cells: HEK293
Briefly: Dopamine D2 receptor binding assay, displacement of [125I]-iodospiperone. Conditions: saturation binding, HEK293 dopamine D2 membranes; read-out: KD of radioligand. As for the experimental part: as §1
The pellets were stored at −80° C. until use. […] (Beckman Ultrazentrifuge XL 80).
as §2
a) Dopamine D2 Receptor Binding Assay
Non-specific binding was defined with 1 μM haloperidol.

T1 sequence (P50406 whole entry): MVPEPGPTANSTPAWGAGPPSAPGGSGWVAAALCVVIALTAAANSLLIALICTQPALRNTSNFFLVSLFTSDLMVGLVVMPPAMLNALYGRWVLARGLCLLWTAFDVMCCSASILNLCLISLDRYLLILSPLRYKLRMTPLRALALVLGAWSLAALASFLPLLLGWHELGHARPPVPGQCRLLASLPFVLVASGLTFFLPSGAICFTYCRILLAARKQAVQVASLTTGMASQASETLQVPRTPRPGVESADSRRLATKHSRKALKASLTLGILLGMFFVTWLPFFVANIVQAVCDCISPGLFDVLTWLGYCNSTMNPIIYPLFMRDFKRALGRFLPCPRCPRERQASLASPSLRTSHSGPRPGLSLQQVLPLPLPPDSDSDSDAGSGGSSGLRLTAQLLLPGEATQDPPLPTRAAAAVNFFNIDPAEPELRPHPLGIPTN
T2 sequence (P14416 whole entry): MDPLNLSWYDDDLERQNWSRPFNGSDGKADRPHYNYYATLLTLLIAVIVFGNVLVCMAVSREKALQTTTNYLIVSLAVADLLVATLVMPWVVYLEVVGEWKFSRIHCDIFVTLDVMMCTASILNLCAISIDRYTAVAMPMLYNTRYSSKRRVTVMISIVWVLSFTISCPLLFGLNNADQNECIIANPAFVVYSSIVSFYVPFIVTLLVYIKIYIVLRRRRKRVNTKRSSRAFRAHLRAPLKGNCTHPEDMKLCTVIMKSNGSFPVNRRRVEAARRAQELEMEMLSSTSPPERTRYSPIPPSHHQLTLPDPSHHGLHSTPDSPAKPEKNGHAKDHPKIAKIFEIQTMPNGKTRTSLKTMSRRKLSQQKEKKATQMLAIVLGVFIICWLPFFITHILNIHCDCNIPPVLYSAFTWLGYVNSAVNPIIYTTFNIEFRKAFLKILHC

`O=S(=O)(c1ccccc1)c1cnc2c(C3CCN(Cc4ccccc4)C3)cccc2c1` (centres unmarked) [Example 3, 8-(1-Benzylpyrrolidin-3-yl)-3-(phenylsulfonyl)quinoline]: at h-5-HT6 receptor, the Ki was greater than 1000 nM.

The compound `O=S(=O)(c1ccccc1)c1cnc2c(C3CNC3)cccc2c1` [Example 1, 8-(Azetidin-3-yl)-3-(phenylsulfonyl)quinoline hydrochloride] registered a Ki on h-5-HT6 receptor of less than 100 nM.

For iodospiperone [[^125I]-iodospiperone], the Kd on dopamine D2 receptor was determined as 0.22 nM.

Regarding `O=S(=O)(c1cccc(Br)c1)c1cnc2c(C3CCNCC3)cccc2c1` [Example 6, 3-(3-Bromophenylsulfonyl)-8-(piperidin-4-yl)quinoline], at h-5-HT6 receptor, the Ki was less than 100 nM.

Take `O=S(=O)(c1cccc(N2CCCC2)c1)c1cnc2c(C3CCNCC3)cccc2c1` [Example 7, 8-(Piperidin-4-yl)-3-(3-(pyrrolidin-1-yl)phenylsulfonyl)quinoline]: at h-5-HT6 receptor, the Ki was less than 100 nM.

On to `O=S(=O)(c1ccc(F)cc1)c1cnc2c(C3CCNCC3)cccc2c1` [Example 5, 3-(4-Fluorophenylsulfonyl)-8-(piperidin-4-yl)quinoline], for which, on h-5-HT6 receptor, the Ki is less than 100 nM.

As for `O=S(=O)(c1ccccc1)c1cnc2c(C3CCNCC3)cccc2c1` [Example 2, 3-(Phenylsulfonyl)-8-(piperidin-4-yl)quinoline hydrochloride], the Ki at h-5-HT6 receptor was less than 100 nM.

For `O=S(=O)(c1cccc(C(F)(F)F)c1)c1cnc2c(C3CCNCC3)cccc2c1` [Example 4, 8-(Piperidin-4-yl)-3-(3-(trifluoromethyl)phenylsulfonyl)quinoline], the Ki on h-5-HT6 receptor was less than 100 nM.

The term Ki denotes a measure of affinity in units of concentration, obtained from inhibition or displacement. By Kd is commonly meant the free concentration of one partner at which half of the binding sites on the other are occupied at equilibrium, for simple one-to-one binding.
